In paper PMC7652251, “Anti-aging Effects of Mangosteen Peel Extract and Its Phytochemical Compounds: Antioxidant Activity, Enzyme Inhibition and Molecular Docking Simulation” (Tropical Life Sciences Research, 2020) one finds IC50 data, which are given here for four molecules.

The pIC50 is −log10 of the IC50, conventionally taken in molar units. Read a high pIC50 as a low IC50.

For experiment [1], the target named is T1, Collagenase from Clostridium histolyticum.
T1 construct: gene colG
Nature of the experiment: absorbance […] nm, FALGPA hydrolysis. Format: biochemical, Hathewaya histolytica. The following applies: N-[3-(2-furyl)acryloyl]-Leu-Gly-Pro-Ala 1 mM, Tricine 50 mM pH 7.5, 37°C, 20 min pre-incubation.

Experiment [2] addresses T2, porcine pancreas elastase (Sus scrofa, UniProt P00772).
T2 construct: gene CELA1; native enzyme from porcine pancreas, commercial
Nature of the experiment: absorbance […] nm, p-nitroanilide release. It counts as biochemical.

The target in experiment [3] is T3, bovine testes hyaluronidase type I-S (Bos taurus, UniProt F1MTV1).
T3 construct: gene SPAM1; native enzyme from bovine testes, commercial
T3 sequence (F1MTV1 36-553): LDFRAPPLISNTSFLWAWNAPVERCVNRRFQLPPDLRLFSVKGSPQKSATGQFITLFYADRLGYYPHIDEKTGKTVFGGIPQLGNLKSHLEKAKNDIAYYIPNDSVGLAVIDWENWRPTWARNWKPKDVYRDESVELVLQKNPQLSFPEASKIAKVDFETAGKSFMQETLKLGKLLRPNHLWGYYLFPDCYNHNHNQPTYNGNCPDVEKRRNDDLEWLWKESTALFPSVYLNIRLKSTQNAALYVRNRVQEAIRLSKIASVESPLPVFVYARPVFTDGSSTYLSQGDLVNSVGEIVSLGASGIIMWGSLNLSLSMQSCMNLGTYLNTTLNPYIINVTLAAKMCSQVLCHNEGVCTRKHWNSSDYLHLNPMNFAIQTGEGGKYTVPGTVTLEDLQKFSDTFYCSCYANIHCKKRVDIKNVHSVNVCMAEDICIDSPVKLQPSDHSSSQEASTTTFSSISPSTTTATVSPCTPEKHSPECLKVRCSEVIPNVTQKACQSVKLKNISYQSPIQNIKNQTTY
Kind of experiment: turbidity […] nm, hyaluronic acid with acidic albumin. Format: biochemical. To be noted: phosphate 300 mM pH 5.35, 37°C, 45 min.

A further experiment concerns the target T4, mushroom tyrosinase.
T4 construct: gene PPO1; PPO3 (2Y9X) is only the docking model
Kind of experiment: absorbance […] nm, L-DOPA oxidation. Format: biochemical. The following applies: L-DOPA 1.5 mM stock (20 μL added), potassium phosphate 20 mM pH 6.8, room temperature, 15 min pre-incubation.

pIC50: −log10 of the molar value.

T2 sequence (P00772 27-266): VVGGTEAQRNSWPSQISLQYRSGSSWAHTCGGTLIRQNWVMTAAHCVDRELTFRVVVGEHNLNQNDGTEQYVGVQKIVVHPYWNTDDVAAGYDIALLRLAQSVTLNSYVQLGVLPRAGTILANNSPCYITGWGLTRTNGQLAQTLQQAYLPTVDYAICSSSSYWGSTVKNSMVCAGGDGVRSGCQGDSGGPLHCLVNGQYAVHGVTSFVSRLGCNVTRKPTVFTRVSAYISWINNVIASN

As to `COc1c(O)cc2oc3cc(O)c(CC=C(C)C)c(O)c3c(=O)c2c1CC=C(C)C` [Alpha-mangostin], the pIC50 in experiment [1] was 4.62; in experiment [2] it was 4.30; in experiment [3], 4.40; on mushroom tyrosinase, 3.76.

For `CC(C)=CCc1c(O)cc2oc3cc(O)c(O)c(CC=C(C)C)c3c(=O)c2c1O` [Gamma-mangostin], the pIC50 in experiment [1] was 3.85; in experiment [2], 3.81; in experiment [3], 4.22; on mushroom tyrosinase, 3.90.

In the case of `CC(C)=CCc1c(O)cc2oc3cc(O)c(O)c(CCC(C)(C)O)c3c(=O)c2c1O` [Garcinone C], the pIC50 in experiment [1] was 4.10; in experiment [2], 4.31; in experiment [3], 3.74; at mushroom tyrosinase, 3.80.

Consider `COc1c(O)cc2oc3cc(O)c(CC=C(C)C)c(O)c3c(=O)c2c1CCC(C)(C)O` [Garcinone D], for which the negative-log IC50 (pIC50) in experiment [1] was 3.80; in experiment [2], 4.30; in experiment [3], 3.69; at mushroom tyrosinase, 3.60.
